Here are results for seven compounds from US20060258601A1, “Formulation for inwardly transferring nucleic acids into eucaryotic cells” (priority 2002, published 2006).

Common to all, as to type: cell-based
For experiment [1], the system named is human cultivated endothelial cells. Kind of experiment: Absorption of FITC-marked decoy oligonucleotide, fluorescence microscopy. The settings on record: for effect of transport inhibitors on accumulation/absorption of decoy oligonucleotides: human endothelial cells, methotrexate by comparison with folic acid; for concentration of the nucleic acids in the cell on co-incubation with nonsteroidal anti-inflammatory drug: 100 μmol/l co-incubation, 1 hour (FIG. 6). The method, then:
Human endothelial cells were isolated from umbilical veins by treatment with 1.6 U/ml dispase in Hepes-modified tyrode solution for 30 minutes at 37° C. and cultivated on gelatine-coated 6-well tissue-culture dishes (2 mg/ml gelatine in 0.1 M HCl for 30 minutes at room temperature) in 1.5 ml M199 medium (Gibco Life Technologies, Karlsruhe, Germany), containing 20% foetal calf serum, 50 U/ml penicillin, 50 μg/ml streptomycin, 10 U/ml nystatin, 5 mM HEPES and 5 mM TES, 1 μg/ml heparin and 40 μg/ml endothelial growth factor. […] Before the start of the experiment, the endothelial cells cultivated in the 24-well cell-culture plates were washed once with Ringer's solution at 37° C. (composition: 145 mmol/l Na^+, 5 mmol/l K^+, 156 mmol/l Cl^−, 2 mmol/l Ca^2+, 1 mmol/l Mg^2+, 10 mmol/l Hepes, 10 mmol/l D-glucose, pH 7.35). […] After an incubation period of up to 180 min at 37° C. and in ambient air, the cells were washed three times with 1 ml warm, non-modified Ringer's solution. The fluorescence intensities were recorded with the MicroMax CCD-camera (Princeton Instruments Inc., Trenton, N.J., USA), which was coupled to an Axiovert S100 TV microscope (Zeiss, Göttingen, Germany), with an excitation wavelength of 494 nm, an emission wavelength of 518 nm and 200× magnification. The fluorescence images (one image was taken for each portion of the experimental mixture) and the subsequent quantification was implemented using the MetaMorph V3.0 Software (Universal Imaging West Chester, Pa., USA). For the quantification, all fluorescence images for an experimental mixture were initially calibrated to an identical level of brightness and contrast. Following this, the software was used to determine an overall brightness integrated across the individual pixels for each image as a measure for the fluorescence intensity, thereby representing the intracellular concentration of the decoy oligonucleotide.

The next experiment relates to caveolin-1. Put plainly: Western-blot analysis of caveolin-1 protein expression after antisense oligonucleotide treatment. The settings on record: human cultivated endothelial cells; antisense 0.5 μmol/l with lipofectin; n=3. The method, then: (§1) For an antisense mixture, 3% lipofectin (v/v) (Gibco Life Technologies) was added to 1 ml culture medium and incubated for 60 minutes at room temperature (RT). Following this, the corresponding antisense or control oligonucleotide (Eurogentec, Köln, Germany) was added in a final concentration of 0.5 μmol/l and incubated for a further 30 minutes at room temperature. At the start of the experiments, the corresponding quantities of heparin and endothelial growth factor were added, and the conventional cell culture medium of the endothelial cell culture was replaced by the antisense lipofectin medium. After 6 hours, the antisense lipofectin medium was removed and replaced by fresh cell culture medium; the Western-blot analysis and/or the fluorescence-microscopic analysis of the decoy-oligonucleotide absorption was carried out 24 hours after the transfection. […]
(§2) The human umbilical vein endothelial cells were opened by freezing successively five times in liquid nitrogen and thawing at 37° C. […] CD40 protein was detected with a polyclonal anti-human antibody (Research Diagnostics Inc., Flanders, N.J., USA). […]

Experiment [2] deals with reduced folic-acid-carrier. Kind of experiment: Western-blot analysis of reduced folic-acid-carrier protein expression after antisense oligonucleotide treatment. The settings on record: human cultivated endothelial cells; antisense 0.5 μmol/l with lipofectin; n=5. On the procedure: as §1, §2
Where [3] appears, read: FITC-marked C/EBP decoy 10 μmol/l.

Regarding “5′-A*T*G*TCCCTCCGAGT*C*T*A-3′ [antisense oligonucleotide for caveolin-1]”, in experiment [1] (after inhibition of caveolin-1 expression, FITC-marked C/EBP decoy 10 μmol/l, 1 hour (FIG. 2)), the “effect on absorption of the decoy oligonucleotide” value was “significant restricttion”. In addition, the “protein expression of caveolin-1” value in the experiment on caveolin-1 was 37±10 % of the control.

As for 5′-C*A*A*A*GG*T*A*GC*A*C*A*CG*A*G-3′, the “inhibition of the decoy-oligonucleotide absorption” value in experiment [1] (after antisense reduction of hFRC protein, FITC-marked C/EBP decoy 10 μmol/l, 1 hour (FIG. 4)) is 45%. The “protein expression of the reduced folic-acid-carrier” value in experiment [2] is 33±10 % of the control.

Consider `O=S(=O)(O)c1cc(N=C=S)ccc1C=Cc1ccc(N=C=S)cc1S(=O)(=O)O` [DIDS, 4,4′-diisothiocyano-2,2′-stilben-disulfonic acid], for which, in experiment [1], the “effect of transport inhibitors on accumulation/absorption of decoy oligonucleotides” value was “high sensitivity”.

Regarding `CC(C(=O)O)c1ccc(-c2ccccc2)c(F)c1` (stereo not drawn) [flurbiprofen], the “concentration of the nucleic acids in the cell on co-incubation with nonsteroidal anti-inflammatory drug” value in experiment [1] (setting [3]) is recorded as “significantly increased”.

With `CC(C(=O)O)c1ccc(N2Cc3ccccc3C2=O)cc1` (stereo not drawn) [indoprofen], the “concentration of the nucleic acids in the cell on co-incubation with nonsteroidal anti-inflammatory drug” value in experiment [1] (setting [3]) is “significantly increased”.

Turning to `CN(Cc1cnc2nc(N)nc(N)c2n1)c1ccc(C(=O)N[C@@H](CCC(=O)O)C(=O)O)cc1` [methotrexate], the “effect of transport inhibitors on accumulation/absorption of decoy oligonucleotides” value in experiment [1] is reported as “considerably improved inhibition”.

On to `CCCN(CCC)S(=O)(=O)c1ccc(C(=O)O)cc1` [probenicid], for which the “effect of transport inhibitors on accumulation/absorption of decoy oligonucleotides” value in experiment [1] is recorded as “probenicid-sensitive”.
